Measurements reported in patent US8252294B2, “Methods of screening for compounds that inhibit the biosynthesis of GPI in malaria parasites” (Eisai R&D Management Co., Ltd., priority 2002, dated 2012).

Tests used:
ScGWT1-expressing yeast = assay: Growth inhibition of GWT1-disrupted yeast expressing S. cerevisiae GWT1 (pGAP-ScGWT1), culture turbidity; type: cell-based; settings: for culture turbidity at 660 nm: pGAP-ScGWT1 yeast, 30° C., two days
Description: (§1) An expression cassette was constructed by inserting the S. cerevisiae GWT1 terminator, and the S. cerevisiae GAPDH promoter and multi-cloning site into the SacI-KpnI site of the single-copy vector pRS316. S. cerevisiae GWT1 and opfGWT1 were inserted into the multi-cloning site to prepare pGAP-ScGWT1 and pGAP-opfGWT1 plasmids, respectively. These plasmids were introduced into the GWT1 disruptant. Serial two-fold dilutions of compound (1) were prepared using YPAD to make the highest final concentration 50 μg/ml. A 50 μl aliquot of the diluted compound was added to each well of a 96-well plate. Overnight cultures of yeast cells comprising each plasmid were diluted 1000-fold and then a 50 μl aliquot of the dilution was added to each well. The plates were incubated at 30° C. for two days, and then culture turbidity was determined at 660 nm (FIG. 2 and Table 1).

opfGWT1-expressing yeast = assay: Growth inhibition of GWT1-disrupted yeast expressing opfGWT1 (pGAP-opfGWT1), culture turbidity; type: cell-based, S. cerevisiae; settings: for culture turbidity at 660 nm: pGAP-opfGWT1 yeast, 30° C., two days
Description: as §1

[1] = system: P. falciparum FCR3 strain; assay: Antimalarial activity in red blood cell culture system (infection rate by Giemsa staining); type: cell-based; settings: human red blood cells infected with P. falciparum FCR3, 48 hours, Giemsa staining (FIG. 3)
Description: Specifically, a test compound was dissolved in 100% DMSO, diluted with a medium, and an 80 μl aliquot of the dilution was added to each well of a 96-well culture plate. P. falciparum FCR3 strain was pre-cultured in RPMI1640 medium containing 10% human serum at 37° C., and then 20 μl of the cultured cells (containing 10% red blood cells) was added to each well. At this time, 0.47% of red blood cells were infected. After culturing under 5% O2, 5% CO2, and 90% N2 at 37° C. for 48 hours, the malaria parasites were stained using Giemsa staining. The number of protozoan-infected red blood cells was determined in order to estimate infection rate (FIG. 3).

Row | SMILES | inhibition at 25 µg/mL (ScGWT1-expressing yeast; Saccharomyces cerevisiae, ScGWT1-expressing yeast, compound at 25 μg/ml) [%] | viability of yeast (ScGWT1-expressing yeast; ScGWT1-expressing yeast, compound at 50 μg/ml) | culture turbidity at 660 nm (ScGWT1-expressing yeast; compound 6.25 μg/ml) | culture turbidity at 660 nm (ScGWT1-expressing yeast; compound 12.5 μg/ml) | culture turbidity at 660 nm (ScGWT1-expressing yeast; compound 25 μg/ml) | culture turbidity at 660 nm (ScGWT1-expressing yeast; compound 50 μg/ml) | inhibition at 25 µg/mL (opfGWT1-expressing yeast; Saccharomyces cerevisiae, opfGWT1-expressing yeast, compound at 25 μg/ml) [%] | viability of yeast (opfGWT1-expressing yeast; opfGWT1-expressing yeast, compound at 50 μg/ml) | culture turbidity at 660 nm (opfGWT1-expressing yeast; compound 6.25 μg/ml) | culture turbidity at 660 nm (opfGWT1-expressing yeast; compound 12.5 μg/ml) | culture turbidity at 660 nm (opfGWT1-expressing yeast; compound 25 μg/ml) | culture turbidity at 660 nm (opfGWT1-expressing yeast; compound 50 μg/ml) | antimalarial activity (infection rate of red blood cells) [1]
1 | CCCCc1ccc(Cc2nccc3ccccc23)cc1 [compound (1), 1-(4-butylbenzyl) isoquinoline] | ~85 | completely nonviable | 0.7370 | 0.6670 | 0.1140 | 0.0420 | ~50 | completely nonviable | 0.6990 | 0.6910 | 0.3630 | 0.0530 | 
2 | CCCCc1ccc(Cc2nccc3ccccc23)c(O)c1 [compound (3), 5-butyl-2-(1-isoquinolylmethyl) phenol] |  |  |  |  |  |  |  |  |  |  |  |  | strong antimalarial activity
3 | COc1cccnc1Cc1ccc(Br)cc1F [compound (4), 2-(4-bromo-2-fluorobenzyl)-3-methoxypyridine] |  |  |  |  |  |  |  |  |  |  |  |  | lowest activity
